Structures can show the parent of a compound that is named as a salt.
Each compound was assayed on PMS1 (assay: Mini-Gene Reporter Assay—PMS1 (firefly luciferase mini-gene reporter transiently transfected into HEK293 cells)). Conditions: Homo sapiens; at 5 uM; mini-gene firefly luciferase reporter in HEK293 cells; read-out: PMS1 % Effect at 5 uM.
Assay type: cell-based
How it was run: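 Luminescence (RLU) read-out of exon inclusion: compound dilutions, tested in duplicate, act on transiently transfected HEK293 cells carrying a firefly luciferase reporter fused downstream of the PMS1 skipped-exon region. Potency derived by Levenberg-Marquardt curve fitting, with percent effect at 5 μM.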

Row | Compound | activation at 5 µM
1 | CCOc1cc2nn(C)cc2cc1C(=O)Nc1ccc(N2CCN(C(=O)OC(C)OC(=O)C(C)C)[C@@H](C)C2)nn1 (stereo partly drawn) [Compound 747, 1-(isobutyryloxy)ethyl (2S)-4-(6-(6-ethoxy-2-methyl-2H-indazole-5-carboxamido)pyridazin-3-yl)-2-methylpiperazine-1-carboxylate] | > 75%
2 | CCOc1cc2nc(C)cn2cc1C(=O)Nc1ccc(N2CC3CNCC3C2)nn1 (stereo not drawn) [Compound 748, (7-ethoxy-N-(6-(hexahydropyrrolo[3,4-c]pyrrol-2(1H)-yl)pyridazin-3-yl)-2-methylimidazo[1,2-a]pyridine-6-carboxamide formate] | > 75%
3 | CCOc1cc2nn(C)cc2cc1C(=O)Nc1ccc(N2CCNCC2)nn1 [Compound 749, 6-ethoxy-2-methyl-N-(6-(piperazin-1-yl)pyridazin-3-yl)-2H-indazole-5-carboxamide hydrochloride] | > 75%
4 | CCOc1cc2nn(C)cc2cc1C(=O)Nc1ccc(N2CCN[C@H](C)C2)nn1 [Compound 750, (R)-6-ethoxy-2-methyl-N-(6-(3-methylpiperazin-1-yl)pyridazin-3-yl)-2H-indazole-5-carboxamide hydrochloride] | > 75%
5 | CCOc1cc2nn(C)cc2cc1C(=O)Nc1ccc(N2C[C@@H](C)N[C@@H](C)C2)nn1 [Compound 751, N-(6-((3S,5R)-3,5-dimethylpiperazin-1-yl)pyridazin-3-yl)-6-ethoxy-2-methyl-2H-indazole-5-carboxamide hydrochloride] | > 75%
6 | CCOc1cc2nn(C)cc2cc1C(=O)Nc1ccc(C2=CC(C)NCC2)nn1 (stereo not drawn) [Compound 752, 6-ethoxy-2-methyl-N-(6-(6-methyl-1,2,3,6-tetrahydropyridin-4-yl)pyridazin-3-yl)-2H-indazole-5-carboxamide] | > 75%
7 | CCOc1cn2nc(C)cc2cc1C(=O)Nc1ccc(N2CCNCC2)nn1 [Compound 753, 6-ethoxy-2-methyl-N-(6-(piperazin-1-yl)pyridazin-3-yl)pyrazolo[1,5-a]pyridine-5-carboxamide hydrochloride] | > 75%
8 | CCOc1cn2nc(C)cc2cc1C(=O)Nc1ccc(C2=CCNCC2)nn1 [Compound 754, 6-ethoxy-2-methyl-N-(6-(1,2,3,6-tetrahydropyridin-4-yl)pyridazin-3-yl)pyrazolo[1,5-a]pyridine-5-carboxamide hydrochloride] | > 75%
9 | CCOc1cn2nc(C)cc2cc1C(=O)Nc1ccc(N2CCNC(C)(C)C2)nn1 [Compound 755, N-(6-(3,3-dimethylpiperazin-1-yl)pyridazin-3-yl)-6-ethoxy-2-methylpyrazolo[1,5-a]pyridine-5-carboxamide hydrochloride] | > 75%
10 | CCOc1cc2nn(C)cc2cc1C(=O)Nc1ccc(C2=CC(C)(C)NCC2)nn1 [Compound 756, N-(6-(6,6-dimethyl-1,2,3,6-tetrahydropyridin-4-yl)pyridazin-3-yl)-6-ethoxy-2-methyl-2H-indazole-5-carboxamide formate] | > 75%
11 | CCOc1cn2nc(C)cc2cc1C(=O)Nc1ccc(C2CCNCC2)nn1 [Compound 757, 6-ethoxy-2-methyl-N-(6-(piperidin-4-yl)pyridazin-3-yl)pyrazolo[1,5-a]pyridine-5-carboxamide hydrochloride] | > 75%
12 | CCOc1cc2nc(C)cn2cc1C(=O)Nc1ccc(N2CC(C)NC(CC)C2)nn1 (stereo not drawn) [Compound 758, 7-ethoxy-N-(6-(3-ethyl-5-methylpiperazin-1-yl)pyridazin-3-yl)-2-methylimidazo[1,2-a]pyridine-6-carboxamide] | > 75%
13 | CCOc1cc2nc(C)cn2cc1C(=O)Nc1ccc(C2=CCN(C)CC2)nn1 [Compound 759, 7-ethoxy-2-methyl-N-(6-(1-methyl-1,2,3,6-tetrahydropyridin-4-yl)pyridazin-3-yl)imidazo[1,2-a]pyridine-6-carboxamide] | > 75%
14 | CCOc1cn2nc(C)cc2cc1C(=O)Nc1ccc(N2C[C@@H](C)N[C@@H](C)C2)nn1 [Compound 761, N-(6-((3R,5S)-3,5-dimethylpiperazin-1-yl)pyridazin-3-yl)-6-ethoxy-2-methylpyrazolo[1,5-a]pyridine-5-carboxamide hydrochloride] | > 75%

Same assay, conditions: Homo sapiens; mini-gene firefly luciferase reporter in HEK293 cells

Row | IC50 | Compound
15 | 1 to 10 µM | COc1cc2nn(C)cc2cc1C(=O)Nc1cnc(N2CCNCC2)cn1 [Compound 746, 6-methoxy-2-methyl-N-(5-(piperazin-1-yl)pyrazin-2-yl)-2H-indazole-5-carboxamide formate]

— US20250066389A1, “HETEROCYCLIC AMIDES AND METHODS OF USING THE SAME” (Rgenta Therapeutics, Inc., priority 2021, published 2025)
